These results are taken from US20160311817A1, “HETEROARYL SULTAM DERIVATIVES AS RORc MODULATORS” (Genentech, Inc., priority 2014, published 2016).

The target in this experiment is T1, RORc ligand binding domain (Homo sapiens, UniProt P51449).
T1 construct: host or cells: E. coli
T1 sequence (P51449 269-508 limits assumed): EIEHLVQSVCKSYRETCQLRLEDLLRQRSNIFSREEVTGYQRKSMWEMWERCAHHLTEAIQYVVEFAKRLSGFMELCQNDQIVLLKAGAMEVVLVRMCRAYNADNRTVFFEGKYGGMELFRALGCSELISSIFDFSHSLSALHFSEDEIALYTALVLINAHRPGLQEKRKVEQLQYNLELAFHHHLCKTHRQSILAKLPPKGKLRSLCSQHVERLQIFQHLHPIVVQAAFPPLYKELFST
The experiment can be described thus: In Vitro RORc Ligand Binding Assay. The conditions noted are these: radioligand 25-[3H]hydroxycholesterol 6 nM; 0.6 ug/mL RORc receptor; 3 h at 25° C. The method, then:
In Vitro RORc Ligand Binding Assay
This assay was used to determine a compound's potency in inhibiting activity of RORc by determining, Kiapp, IC50, or percent inhibition values.
On day of the assay, 100 uL of 0.05% CHAPS (in deionized H2O) was added to all wells of the GFB Unifilter plate and allowed soak for 1 h. A wash buffer of 50 mM HEPES (pH 7.4), 150 mM NaCl, and 5 mM MgCl2 was prepared to wash the filter plate. To prepare an assay buffer, BSA was added to the wash buffer to reach 0.01% and DTT was added to reach 1 mM.
For IC50 mode, 10 mM compound stocks were serially diluted in DMSO with DMSO to give 20× required final concentration in DMSO (15 uL compound+30 uL DMSO). The 20× compound stocks were diluted in DMSO with Assay Buffer 4-fold to reach 5× the final test concentration in 25% DMSO (10 uL compound+30 uL Assay Buffer). Solutions were mixed by aspiration several times with a pipette set on 50 uL volume. For the assay, 10 uL of 5× compound stock solutions in 25% DMSO were added to the assay plate in duplicate.
For two point screening, 10 mM stock compound solutions were diluted in DMSO to obtain 200 uM (20× the high test concentration) and then diluted 10-fold further to reach 20 uM (20× the low test concentration). The 20× stocks were diluted 4-fold with Assay Buffer (10 uL compound+30 uL Assay Buffer) to reach 5× the test concentrations (50 uM and 5 uM) and 10 uL were added to two assay plates for the duplicate wells. With each concentration tested on 2 plates, each set of 80 compounds used 4 assay plates (1 uM and 10 uM, with n=2).
25-hydroxycholesterol (1 uM) was used to determine the level of NSB signal is prepared in DMSO as for compounds above, then diluted in Assay Buffer to give a final concentration of 5 uM. For 25-hydroxycholesterol in 25% DMSO/75% Assay Buffer; 10 uL per well was used for NSB samples. Wells for Total Binding and No Receptor sample determination contained 10 uL of 25% DMSO/75% Assay Buffer per well.
25-[^3H]hydroxycholesterol was dilute in Assay Buffer to obtain 15 nM and vortex to mix. Add 20 uL to all wells to reach 6 nM final in the assay.
Stock receptor solution was diluted in assay buffer to obtain 1.5 ug/mL in Assay Buffer. 20 uL was added to all wells. For No R samples, 20 uL Assay Buffer was substituted for receptor solution.
Assay plates were 96-well polypropylene V-bottom plates. 10 uL of 5× compound in 25% DMSO/75% Assay Buffer was added to Test wells. 10 uL of 25% DMSO/75% Assay Buffer was added to Total Binding or No Receptor wells. 10 uL of 5 uM 25-hydroxycholesterol in 25% DMSO/75% Assay Buffer was added to NSB wells. 20 uL of 15 nM 25-[^3H]hydroxycholesterol prepared in Assay Buffer was added to all wells. 20 uL of 1.5 ug/mL RORc receptor was added to wells (or […] Assay Buffer to No R wells). Following addition to the wells, the plates were incubated 3 h at 25° C.
Using a Packard Filtermate Harvester, the filter plate were washed 4 times following transfer of the incubated samples. Plates were dry-filtered completely (2 h at 50° C. or overnight at room temperature). 50 uL Microscint 0 was added to all wells and read on Topcount protocol Inverted.
Final concentrations were as follows: 50 mM HEPES buffer (pH 7.4); 150 mM NaCl; 1 mM DTT; 5 mM MgCl2, 0.01% BSA; 5% DMSO; 0.6 ug/mL RORc receptor; 6 nM 25-[^3H]hydroxycholesterol. For NSB wells, 1 uM 25-hydroxycholesterol was also present.

What is called IC50 is the midpoint of a concentration-inhibition curve. Consider `CC(=O)N1CCN(c2ccc(CN3[C@@H](C)CCC(c4cccnc4)S3(=O)=O)c(F)c2)CC1` (single isomer, unassigned) [Compound 15, 1-{4-[3-Fluoro-4-(3-methyl-1,1-dioxo-6-pyridin-3-yl-[1,2]thiazinan-2-ylmethyl)-phenyl]-piperazin-1-yl}-ethanone], for which the IC50 was 4.2 µM.

Regarding `CC1CC[C@H](C)N(Cc2cc(F)c(N3C[C@@H]4C(n5cnnc5)[C@@H]4C3)cc2F)S1(=O)=O` (single isomer, unassigned) [Compound 5], the IC50 was found to be 0.074 µM.

For the compound `CC1CCC(C2CCCCC2)S(=O)(=O)N1Cc1cc(F)c(N2CC3C(C2)C3n2cnnc2)cc1F` (single isomer, unassigned) [Compound 1, 3-[4-(6-Cyclohexyl-3-methyl-1,1-dioxo-[1,2]thiazinan-2-ylmethyl)-2,5-difluoro-phenyl]-6-[1,2,4]triazol-4-yl-3-aza-bicyclo [3.1.0]hexane], the IC50 came out at 0.043 µM.

In turn, `CC(=O)N1CCN(c2ccc(CN3[C@@H](C)CCC(c4ccncc4)S3(=O)=O)c(F)c2)CC1` (single isomer, unassigned) [Compound 11, 1-{4-[3-Fluoro-4-(3-methyl-1,1-dioxo-6-pyridin-4-yl-[1,2]thiazinan-2-ylmethyl)-phenyl]-piperazin-1-yl}-ethanone] yielded an IC50 of 2.2 µM.

Compound `CC(=O)N1CCN(c2ccc(CN3[C@@H](C)CCC(c4ncccn4)S3(=O)=O)c(F)c2)CC1` (single isomer, unassigned) [Compound 10, 1-{4-[3-Fluoro-4-(3-methyl-1,1-dioxo-6-pyrimidin-2-yl-[1,2]thiazinan-2-ylmethyl)-phenyl]-piperazin-1-yl}-ethanone] displayed an IC50 of 1.1 µM.

Compound `CC(=O)N1CCN(c2ccc(CN3[C@@H](C)CCC(c4cccs4)S3(=O)=O)c(F)c2)CC1` (single isomer, unassigned) [Compound 7, 1-{4-[3-Fluoro-4-(3-methyl-1,1-dioxo-6-thiophen-2-yl-[1,2]thiazinan-2-ylmethyl)-phenyl]-piperazin-1-yl}-ethanone] had an IC50 of 0.018 µM.

As to `CC(=O)N1CCN(c2ccc(CN3[C@@H](C)CCC(c4ccsc4)S3(=O)=O)c(F)c2)CC1` (single isomer, unassigned) [Compound 13, 1-{4-[3-Fluoro-4-(3-methyl-1,1-dioxo-6-thiophen-3-yl-[1,2]thiazinan-2-ylmethyl)-phenyl]-piperazin-1-yl}-ethanone], the IC50 was found to be 0.123 µM.

In turn, `CC(=O)N1CCN(c2ccc(CN3[C@@H](C)CCC(c4ccncc4)S3(=O)=O)c(F)c2)CC1` (single isomer, unassigned) [Compound 8, 1-{4-[3-Fluoro-4-(3-methyl-1,1-dioxo-6-pyridin-4-yl-[1,2]thiazinan-2-ylmethyl)-phenyl]-piperazin-1-yl}-ethanone] returned an IC50 of 1 µM.

Turning to `CC(=O)N1CCN(c2ccc(CN3[C@@H](C)CCC(c4ncccn4)S3(=O)=O)c(F)c2)CC1` (single isomer, unassigned) [Compound 9, 1-{4-[3-Fluoro-4-(3-methyl-1,1-dioxo-6-pyrimidin-2-yl-[1,2]thiazinan-2-ylmethyl)-phenyl]-piperazin-1-yl}-ethanone], the IC50 amounted to 0.792 µM.

As for `CC(=O)N1CCN(c2ccc(CN3[C@@H](C)CCC(c4ccccn4)S3(=O)=O)c(F)c2)CC1` (single isomer, unassigned) [Compound 17], the IC50 worked out at 0.825 µM.

On to `CC(=O)N1CCN(c2ccc(CN3[C@@H](C)CCC(c4cccnc4)S3(=O)=O)c(F)c2)CC1` (single isomer, unassigned) [Compound 14, 1-{4-[3-Fluoro-4-(3-methyl-1,1-dioxo-6-pyridin-3-yl-[1,2]thiazinan-2-ylmethyl)-phenyl]-piperazin-1-yl}-ethanone], for which the IC50 stood at 0.87 µM.

Consider `CC1CCC(C2CCCCC2)S(=O)(=O)N1Cc1cc(F)c(N2CC3C(C2)C3n2cnnc2)cc1F` (single isomer, unassigned) [Compound 2, 3-[4-(6-Cyclohexyl-3-methyl-1,1-dioxo-[1,2]thiazinan-2-ylmethyl)-2,5-difluoro-phenyl]-6-[1,2,4]triazol-4-yl-3-aza-bicyclo [3.1.0]hexane], for which the IC50 came out at 0.07 µM.

`CC(=O)N1CCN(c2ccc(CN3[C@@H](C)CCC(c4ccccn4)S3(=O)=O)c(F)c2)CC1` (single isomer, unassigned) [Compound 16, 1-{4-[3-Fluoro-4-(3-methyl-1,1-dioxo-6-pyridin-2-yl-[1,2]thiazinan-2-ylmethyl)-phenyl]-piperazin-1-yl}-ethanone] displayed an IC50 of 0.292 µM.

In turn, `CC1CC[C@H](C)N(Cc2cc(F)c(N3C[C@@H]4C(n5cnnc5)[C@@H]4C3)cc2F)S1(=O)=O` (single isomer, unassigned) [Compound 6] yielded a half-inhibitory concentration (IC50) of 0.583 µM.

As to `CC(=O)N1CCN(c2ccc(CN3[C@@H](C)CCC(c4ccsc4)S3(=O)=O)c(F)c2)CC1` (single isomer, unassigned) [Compound 12, 1-{4-[3-Fluoro-4-(3-methyl-1,1-dioxo-6-thiophen-3-yl-[1,2]thiazinan-2-ylmethyl)-phenyl]-piperazin-1-yl}-ethanone], the IC50 was determined as 0.036 µM.

As to `C[C@H]1CCCS(=O)(=O)N1Cc1cc(F)c(N2C[C@@H]3C(n4cnnc4)[C@@H]3C2)cc1F` (stereo partly drawn) [Compound 22, (1S,5R,6S)-3-[2,5-Difluoro-4-((S)-3-methyl-1,1-dioxo-[1,2]thiazinan-2-ylmethyl)-phenyl]-6-[1,2,4]triazol-4-yl-3-aza-bicyclo [3.1.0]hexane], the IC50 is 0.601 µM.
